Laboratory results published in the NIST ThermoML archive (doi:10.1021/acs.jced.7b00819).
Numbers after ± are expanded uncertainties.

How the values were obtained:
[1] = Molar enthalpy of transition or fusion; conditions: Crystal; DSC
[2] = Crystal; DTA

Row | Molar enthalpy of transition or fusion [1] | Normal melting temperature [2] | Structure (SMILES)
1 | 5.88 ± 0.263 kcal/mol | 30.5 ± 0.7 °C | CCOC(=O)C1=NN(c2ccc(Cl)cc2Cl)[C@](C)(C(=O)OCC)C1
2 | 4.4 ± 0.239 kcal/mol | 49.2 ± 0.7 °C | CCOC(=O)C1=NN(c2ccc(Cl)cc2Cl)C(C)(C(=O)OCC)C1 (centres undefined)
